Measurements: US20020026052A1, “3-cyanoquinolines, 3-cyano-1,6-naphthyridines, and 3-cyano-1,7-naphthyridines as protein kinase inhibitors” (American Home Products Corporation, priority 2000, published 2002)

Experiments:
[1] = biological target: Rat2 fibroblasts stably transformed with v-Src/Hu c-Src fusion gene (Homo sapiens, UniProt P12931, cells depend on it, form not given); test: Anchorage Independent Src-transformed Fibroblast Proliferation Assay; format: cell-based, Rat; conditions: suspension growth, MTS reagent on Day 5; read-out: anch-indep src-tx fib IC50
Sequence of Rat2 fibroblasts stably transformed with v-Src/Hu c-Src fusion gene (P12931 whole entry, change not shown, the tested form may be a part): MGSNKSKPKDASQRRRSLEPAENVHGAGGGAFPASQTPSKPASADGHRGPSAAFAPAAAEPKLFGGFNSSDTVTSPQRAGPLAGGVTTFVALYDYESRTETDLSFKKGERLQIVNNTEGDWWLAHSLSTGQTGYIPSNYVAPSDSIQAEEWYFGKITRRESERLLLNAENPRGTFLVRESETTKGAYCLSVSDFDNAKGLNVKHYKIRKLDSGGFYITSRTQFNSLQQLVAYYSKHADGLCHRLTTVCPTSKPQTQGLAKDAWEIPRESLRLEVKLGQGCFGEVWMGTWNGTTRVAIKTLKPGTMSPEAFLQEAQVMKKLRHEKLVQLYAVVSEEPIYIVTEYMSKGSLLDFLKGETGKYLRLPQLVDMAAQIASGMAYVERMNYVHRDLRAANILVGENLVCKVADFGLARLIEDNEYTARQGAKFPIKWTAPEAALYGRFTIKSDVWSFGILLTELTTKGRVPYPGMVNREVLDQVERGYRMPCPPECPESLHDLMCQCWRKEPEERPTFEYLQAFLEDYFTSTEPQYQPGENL
Description: Anchorage Independent Src-transformed Fibroblast Proliferation Assay
Rat2 fibroblasts stably transformed with a plasmid containing a CMV promotor controlled v-Src/Hu c-Src fusion gene in which the catalytic domain of human c-Src was inserted in place of the v-Src catalytic domain in the v-Src gene are used for the measurement of src dependent suspension growth. […] Multiple entries for a given compound indicate that it was tested multiple times.

Row | Structure (SMILES) | melting point | GI50 [1] [µM]
1 | COc1cc(Nc2c(C#N)cnc3cc(-c4ccc(CNCCS(=O)(=O)c5ccccc5)o4)ccc23)c(Cl)cc1Cl [Example 58, 4-(2,4-Dichloro-5-methoxyanilino)-7-[5-({[2-(phenylsulfonyl)ethyl]amino}methyl)-2-furyl]-3-quinolinecarbonitrile] | 123 to 128 °C | 5.1
2 | COc1cc(Nc2c(C#N)cnc3cc(-c4cncn4CCN4CCOCC4)ccc23)c(Cl)cc1Cl [Example 64, 4-(2,4-Dichloro-5-methoxyanilino)-7-{1-[2-(4-morpholinyl)ethyl]-lH-imidazol-5-yl}-3-quinolinecarbonitrile] | 150 °C (dec.) | > 10
3 | COc1cc(Nc2c(C#N)cnc3cc(-c4ccc(N5CCOCC5)cc4)ccc23)c(Cl)cc1Cl [Example 67, 4-(2,4-Dichloro-5-methoxyanilino)-7-[4-(4-morpholinyl)phenyl]-3-quinolinecarbonitrile] | 235 to 237 °C | 0.11
4 | COc1cc(Nc2c(C#N)cnc3cc(-c4ccc(C=O)n4C)ccc23)c(Cl)cc1Cl [Example 69, 4-(2,4-Dichloro-5-methoxyanilino)-7-(5-formyl-1-methyl-1H-pyrrol-2-yl)-3-quinolinecarbonitrile] | 200 °C (dec.) | > 10
5 | COc1cc(Nc2c(C#N)cnc3cc(-c4ccc(CN5CCOCC5)n4C)ccc23)c(Cl)cc1Cl [Example 70, 4-(2,4-Dichloro-5-methoxyanilino)-7-[1-methyl-5-(4-morpholinylmethyl)-1H-pyrrol-2-yl]-3-quinolinecarbonitrile] | 208 to 210 °C | 6
6 | COc1cc(Nc2c(C#N)cnc3cc(-c4ccc(CN5CCN(C)CC5)n4C)ccc23)c(Cl)cc1Cl [Example 71, 4-(2,4-Dichloro-5-methoxyanilino)-7-{1-methyl-5-[(4-methyl-1-piperazinyl)methyl]-1H-pyrrol-2-yl}-3-quinolinecarbonitrile] | 200 °C (dec.) | 6.8
7 | COc1cc(Nc2c(C#N)cnc3cc(-c4ccc(CNCCS(C)(=O)=O)n4C)ccc23)c(Cl)cc1Cl [Example 73, 4-(2,4-dichloro-5-methoxyanilino)-7-[1-methyl-5-({[2-(methylsulfonyl)ethyl]amino}-methyl)-1H-pyrrol-2-yl]-3-quinolinecarbonitrile] | 160 to 164 °C | > 10
8 | COc1cc(Nc2c(C#N)cnc3cc(-c4ccc(CN5CCN(CCO)CC5)o4)ccc23)c(Cl)cc1Cl [Example 75, 4-(2,4-Dichloro-5-methoxyanilino)-7-(5-{[4-(2-hydroxyethyl)-1-piperazinyl]methyl}-2-furyl)-3-quinolinecarbonitrile] | 176 to 181 °C | 0.29
9 | COc1cc(Nc2c(C#N)cnc3cc(-c4ccc(CN(CCO)CCO)o4)ccc23)c(Cl)cc1Cl [Example 76, 7-(5-{[Bis(2-hydroxyethyl)amino]methyl}-2-furyl)-4-(2,4-dichloro-5-methoxyanilino)-3-quinolinecarbonitrile] | 155 to 160 °C | 1.1
10 | COc1cc(Nc2c(C#N)cnc3cc(-c4ccc(CNCCS(C)(=O)=O)o4)ccc23)c(Cl)cc1Cl [Example 77, 4-(2,4-Dichloro-5-methoxyanilino)-7-[5-({[2-(methylsulfonyl)ethyl]amino}methyl)-2-furyl]-3-quinolinecarbonitrile] | 171 to 174 °C | 0.42
11 | COc1cc(Nc2c(C#N)cnc3cc(-c4csc(CN5CCOCC5)c4)ccc23)c(Cl)cc1F [Example 79, 4-{2-Chloro-4-fluoro-5-methoxyanilino)-7-[5-(4-morpholinylmethyl)-3-thienyl]-3-quinolinecarbonitrile] | 185 to 187 °C | 0.13
12 | COc1cc(Nc2c(C#N)cnc3cc(-c4csc(CN5CCOCC5)c4)ccc23)c(Cl)cc1C [Example 80, 4-(2-chloro-5-methoxy-4-methylanilino)-7-[5-(4-morpholinylmethyl)-3-thienyl]-3-quinolinecarbonitrile] | 168 to 170 °C | 0.08

Next, values leading:

Row | melting point | GI50 [1] [µM] | Structure (SMILES)
13 | 120 to 124 °C | 0.05 | COc1cc(Nc2c(C#N)cnc3cc(-c4cc(CN5CCOCC5)c(CN5CCOCC5)s4)c(OC)cc23)c(Cl)cc1Cl [Example 82, 7-[4,5-Bis(4-morpholinylmethyl)-2-thienyl]-4-(2,4-dichloro-5-methoxyanilino)-6-methoxy-3-quinolinecarbonitrile]
14 | 248 to 251 °C | 3.9 | COc1cc(Nc2c(C#N)cnc3cc(-c4ccc(C=O)cc4)ccc23)c(Cl)cc1Cl [Example 83, 4-(2,4-dichloro-5-methoxyanilino)-7-(4-formylphenyl)-3-quinolinecarbonitrile]
15 | 180 to 182 °C | 0.77 | COc1cc(Nc2c(C#N)cnc3cc(-c4ccc(CN5CCC[C@@H]5C(N)=O)cc4)ccc23)c(Cl)cc1Cl [Example 84, (2 R)-1-{4-[3-cyano-4-(2,4-dichloro-5-methoxyanilino)-7-quinolinyl]benzyl}-2-pyrrolidinecarboxamide]
16 | 198 to 201 °C | 10.2 | COc1cc(Nc2c(C#N)cnc3cc(-c4ccc(CNCCS(=O)(=O)c5ccccc5)cc4)ccc23)c(Cl)cc1Cl [Example 85, 4-(2,4-dichloro-5-methoxyanilino)-7-[4-({[2-(phenylsulfonyl)ethyl)amino}methyl)phenyl]-3-quinolinecarbonitrile]
17 | 187 to 189 °C | 0.21 | COc1cc(Nc2c(C#N)cnc3cc(-c4ccc(CN(C)C)cc4)ccc23)c(Cl)cc1Cl [Example 86, 4-(2,4-dichloro-5-methoxyanilino)-7-{4-[(dimethylamino)methyl]phenyl}-3-quinolinecarbonitrile]
18 | 191 to 195 °C | 0.22 | CCN(CC)Cc1ccc(-c2ccc3c(Nc4cc(OC)c(Cl)cc4Cl)c(C#N)cnc3c2)cc1 [Example 87, 4-(2,4-Dichloro-5-methoxyanilino)-7-{4-[(diethylamino)methyl]phenyl}-3-quinolinecarbonitrile]
19 | 245 to 246 °C | 0.85 | COc1cc(Nc2c(C#N)cnc3cc(-c4ccc(CNCCS(C)(=O)=O)cc4)ccc23)c(Cl)cc1Cl [Example 88, 4-(2,4-dichloro-5-methoxyanilino)-7-[4-({[2-(methylsulfonyl)ethyl]amino}methyl)phenyl]-3-quinolinecarbonitrile]
20 | 225 to 226 °C | > 10 | COc1ccc(C#Cc2ccc3c(Nc4cc(OC)c(Cl)cc4Cl)c(C#N)cnc3c2)cc1 [Example 90, 4-(2,4-dichloro-5-methoxyanilino)-7-[2-(4-methoxyphenyl)ethynyl]-3-quinolinecarbonitrile]
21 | 205 to 207 °C | 2.11 | COc1cc(Nc2c(C#N)cnc3cc(-n4cccc4)ccc23)c(Cl)cc1Cl [Example 92, 4-(2,4-Dichloro-5-methoxyanilino)-7-pyrrol-1-yl-3-quinolinecarbonitrile]
22 | 264 to 267 °C | > 10 | COc1cc(Nc2c(C#N)cnc3cc(-c4ccc(CO)cc4)ccc23)c(Cl)cc1Cl [Example 101, 4-(2,4-Dichloro-5-methoxyanilino)-7-[4-(hydroxymethyl)phenyl]-3-quinolinecarbonitrile]
23 | 236 to 239 °C | 7.5 | COc1cc(Nc2c(C#N)cnc3cc(-c4ccc(CCl)cc4)ccc23)c(Cl)cc1Cl [Example 102, 7-[4-(Chloromethyl)phenyl]-4-(2,4-dichloro-5-methoxyanilino)-3-quinolinecarbonitrile]
24 | 151 to 154 °C | > 10 | COc1cc(Nc2c(C#N)cnc3cc(-c4ncccc4CN4CCOCC4)ccc23)c(Cl)cc1Cl [Example 111, 4-(2,4-Dichloro-5-methoxyanilino)-7-[3-(morpholin-4-ylmethyl)-pyridin-2-yl]-3-quinolinecarbonitrile]
25 | 192 to 193 °C | > 10 | COc1cc(Nc2c(C#N)cnc3cc(-c4cccc5ccccc45)ccc23)c(Cl)cc1Cl [Example 116, 4-(2,4-Dichloro-5-methoxyanilino)-7-(1-naphthyl)-3-quinolinecarbonitrile]
26 | 243 to 244 °C | 6.9 | COc1cc(Nc2c(C#N)cnc3cc(-c4ccc5ccccc5c4)ccc23)c(Cl)cc1Cl [Example 117, 4-(2,4-Dichloro-5-methoxyanilino)-7-(2-naphthyl)-3-quinolinecarbonitrile]
27 | 262 to 263 °C | 3 | COc1cc(Nc2c(C#N)cnc3cc(-c4cccc(NC(C)=O)c4)ccc23)c(Cl)cc1Cl [Example 118, N-{3-[3-Cyano-4-(2,4-dichloro-5-methoxyanilino)-7-quinolinyl]phenyl}acetamide]
28 | 276 to 277 °C | > 10 | COc1cc(Nc2c(C#N)cnc3cc(-c4cc5ccccc5o4)ccc23)c(Cl)cc1Cl [Example 119, 7-(1-Benzofuran-2-yl)-4-(2,4-dichloro-5-methoxyanilino)-3-quinolinecarbonitrile]
29 | 282 to 283 °C | > 10 | COc1cc(Nc2c(C#N)cnc3cc(-c4ccc(C(=O)O)cc4)ccc23)c(Cl)cc1Cl [Example 121, 4-[3-Cyano-4-(2,4-dichloro-5-methoxyanilino)-7-quinolinyl]benzoic acid]
30 | 110 to 115 °C | 0.09 | COc1ccc(Cl)c(Nc2c(C#N)cnc3cc(-c4csc(CN5CCOCC5)c4)ccc23)c1 [Example 131, 4-(2-Chloro-5-methoxyanilino)-7-[5-(4-morpholinylmethyl)-3-thienyl]-3-quinolinecarbonitrie]
